Data on 89 molecules can be found in a melting point compilation (Tetko et al.; mined from patent text by program, amines drawn as free bases though some values may be those of a salt).

A value given as a limit tells only on which side of the number the result lay.

With `CC1(c2ccc(C3(O)CCCCCC3)cc2)OCCO1`, the melting point (in general, the temperature of the solid-liquid transition) lay within 77 to 79 °C.
The value for `OCc1nc2cnc3ccccc3c2n1Cc1ccccc1` was 211 to 213 °C.
`C/C(=C\Cn1oc(=O)[nH]c1=O)c1cccc(OCc2nc(-c3ccc(OCC(F)(F)F)cc3)oc2C)c1`: the melting point was in the range of 145 to 146 °C.
The molecule `OC(CCl)COc1ccccc1OCC(O)CCl` (centres undefined) came in with a melting point of 64 to 66 °C.
The value for `Cn1nc(N)c2c(c1=O)OCCNC2Cc1ccccc1` (centres undefined) was 195 to 196 °C; that for `N#Cc1ccc(-c2ccc(OCc3ccccc3)cc2)cc1` was 150 to 152 °C; that for `COc1ccc(C=CC(=O)c2ccc(OC)c(CC=C(C)C)c2O)cc1` was 97 to 97.5 °C.
The value for `CCOC(=O)Cc1ccc(-c2nc(COc3ccc(CO)cc3OC)c(C)o2)cc1` was 97 to 98 °C; that for `CCCn1c(C)nc2cc(C(=O)O)ccc21` was over 260 °C.
The value for `CCc1cc(OC)c(C=C(C)[N+](=O)[O-])cc1OC` was 63 to 64 °C; that for `O=[N+]([O-])c1ccc(OC23CC4CC(CC(C4)C2)C3)c2ccccc12` was 126 to 128 °C.
`CCCCCCC(N)(c1ccccc1)C(C)(C)O` (centres undefined) had a melting point of 64.5 to 65.5 °C.
On to `CSc1nc(-c2ccc(=O)n(C)n2)c(-c2ccccc2)nc1N`, for which the melting point fell in the range of 204 to 206 °C.
The value for `CC(C)C(C#N)c1ccc([N+](=O)[O-])cc1` (centres undefined) was 71 to 72 °C; that for `Cc1c(O)cc(N2C(=O)c3ccccc3C2=O)cc1C(=O)O` was over 250 °C; that for `COc1cc(C=O)ccc1OCc1cn(-c2ccccn2)nc1C` was 141 to 142 °C.
The value for `Oc1cc2c(cc1O)CN(c1ncnc3c(N4CCOCC4)nc(Cl)nc13)CC2` was 187 to 189 °C; that for `CC[Si](C#Cc1ccc2nc(-c3ncc[nH]3)nc(NCCOC)c2c1)(CC)CC` was 158 to 160 °C.
The value for `CC(C(=O)O)c1ccc2c(c1)C(=O)Cc1cc(F)ccc1S2` (centres undefined) was 213 to 214 °C; that for `C[Si](C)(C)C#Cc1ccc(Br)cc1` was 62 °C.
The molecule `N#CCC(=O)N[C@H]1CC[C@H](CCN2CCC(c3cccc4c3CCO4)CC2)CC1` had a melting point of 194 °C.
The value for `COc1ccc(CN2CCC(COc3ccc(F)cc3)CC2)cc1` was 79 to 81 °C; that for `N#Cc1cc2c(cc1F)OCC21C(=O)Nc2ccccc21` (centres undefined) was 222 to 224 °C; that for `CC(=O)OC1CSC(Oc2cncc(-c3ccc(F)c(C)c3)c2)C(OC(C)=O)C1OC(C)=O` (centres undefined) was 161 °C.
The value for `CC(C)CCCC(C)C1CC=C2C3=C(CCC21C)C1(C)CC=CCC1CC3` (centres undefined) was 105 °C; that for `CCC12CCCN3CCC4(C(=C(C(=O)OC)C1)Nc1ccccc14)C32` (centres undefined) was 124 to 125 °C; that for `OCC#Cc1cccc2ccncc12` was 138 to 139 °C.
The value for `O=Cc1c(-c2ccccc2)nn(-c2ccccc2)c1-c1ccccc1` was 159 to 160 °C; that for `CCCN(CCC)C1CCc2cc(NC(C)=O)ccc2C1` (centres undefined) was 119 to 121 °C; that for `O=C1O[C@@H](c2ccccc2)N(C(=O)OCc2ccccc2)[C@H]1Cc1ccccc1` was 120 to 122 °C.
Take `CCCCc1nc(SC)c(C(=O)OCC)n1Cc1ccccc1-c1ccccc1S(=O)(=O)NC#N`: the melting point came to 105 °C.
The value for `CS(=O)(=O)Cc1cccc(C(F)(F)F)c1N` was 96 to 98 °C; that for `CCOC(=O)NC(C(=O)OC)=C1CN=C(c2ccccc2F)c2cc(Cl)ccc2N1` was 188 to 191 °C; that for `O=CCCc1ccc2oc(Cc3ccc4ccccc4c3)nc2c1` was 81 to 82 °C.
The value for `Cc1cccc(NC(=O)c2cccc(C(F)(F)F)c2)c1C(=O)O` was 198 to 204 °C; that for `O=c1[nH]nc2n1-c1ccc(N3CCCC3)nc1C(c1ccccc1Cl)=NC2` was 228 to 230 °C; that for `CC1(C)CN(C2CCN(c3cc(Cl)cc(Cl)c3)C2=O)C1=O` (centres undefined) was 185 to 186 °C.
The value for `O=C(O)c1nccc(OCc2ccccc2)c1OCc1ccccc1` was 120 °C.
Molecule `COc1ccccc1C1CCNC(N)=N1` (centres undefined) had a melting point of 189 to 191 °C.
As to `CCCNC(=O)C=Cc1ccc2ccn(Cc3ccc(C(=O)NS(=O)(=O)c4ccccc4C)cc3OC)c2c1`, the melting point was 240 to 242 °C.
The value for `CC(C)CCCC(C)C1CCC2C3CC=C4CC(OS(C)(=O)=O)CCC4(C)C3CCC12C` (centres undefined) was 119 to 120 °C; that for `COc1ccc(N2CCN(c3c(C)c(C)c4c(c3C)C(c3ccc(C)cc3)C(C)(C)O4)CC2)cc1OC` (centres undefined) was 136 to 139 °C; that for `N#CCc1c[nH]c2cccnc12` was 201 to 202 °C.
Molecule `CN1C(=O)C(C)(C)Oc2ccc(C3=NNC(=O)CC3)cc21` showed a melting point of 169 to 171 °C.
The value for `CNn1c(SC)nnc(C(C)C2CC2)c1=O` (centres undefined) was 66 to 68 °C.
The value for `CC(Cl)(Cl)C(NC(=O)c1cc(F)cc(F)c1)Nc1c(Nc2cccnc2)c(=O)c1=O` (centres undefined) was 231 to 232 °C.
The value for `CC1c2cc(F)ccc2CCN1C(=O)c1cc2ncc(Br)cn2n1` (centres undefined) was 174 to 176 °C; that for `Cn1c(C(F)(F)F)cc(=O)n(-c2c(F)cc(Br)c(O)c2N)c1=O` was 98 to 100 °C; that for `Nc1nccc(Oc2ccc3c(c2)CCCCN3C(=O)Nc2cccc(C(F)(F)F)c2)n1` was 207 °C.
`Cn1cc(-c2cccc(N3Cc4cc(C(C)(C)C)ccc4C3=O)c2CO)cc(Nc2ccc(C3CNC3)cn2)c1=O` had a melting point of 185 to 186 °C.
The value for `CC(C)CC(NC(=O)C(Cc1c[nH]cn1)NC(=O)C(CC(=O)c1ccccc1)Cc1cccc2ccccc12)C(O)C(=O)OC(C)C` (centres undefined) was 108 to 118 °C; that for `C=CCNC(=S)C(CN1CCOCC1)c1ccccn1` (centres undefined) was 84 to 86 °C.
The value for `N#CN1C2CCC1CC(c1n[nH]c3cc(F)ccc13)C2` (centres undefined) was 182 to 184 °C.
The value for `CN(c1ccc(Cl)cc1)c1nc(=O)c2cccnc2s1` was 189 to 190 °C; that for `COc1ccc(Cc2cc(-c3ccc(Cl)cc3)sc2Cc2ccc(OC)cc2)cc1` was 125 to 128 °C; that for `COc1ccc(C(=O)O)cc1OC1CCSC1` (centres undefined) was 177 to 179 °C.
In turn, `Cc1oc(-c2ccco2)nc1COc1ccc(CO)cn1` showed a melting point of 120 to 121 °C.
The value for `O=[N+]([O-])c1cccnc1NCc1ccc(F)cc1` was 76 °C.
The value for `COC(=O)C(CC1CCCC1)c1ccc(S(C)(=O)=O)c(F)c1` (centres undefined) was 66 to 68 °C; that for `COC(=O)c1ccc(Cc2c[nH]c3ccc([N+](=O)[O-])cc23)c(OC)c1` was 153 to 155 °C; that for `NC(=O)CNc1c(F)cc([N+](=O)[O-])cc1F` was 160 to 162 °C.
The value for `COC(=O)c1ncn2c1CN=C(c1ccccc1Cl)c1cc(Cl)ccc1-2` was 206 to 208 °C.
Molecule `CCOC(=O)C1Cc2ccc(C(=O)c3ccc(NC(C)=O)c(Cl)c3)cc2C1` (centres undefined) displayed a melting point of 126 to 127 °C.
The value for `COc1ccc(CC(C)CC(=O)O)c(C(C)C)c1OC` (centres undefined) was 100 to 101 °C; that for `O=C(Nc1cccc(OCCCN2CCOCC2)c1)C12CC3CC(CC(C3)C1)C2` was 160 to 164 °C; that for `CCCOCC1(C)CCCOc2cc(/C=C/c3ccc(C(=O)O)cc3)ccc21` (centres undefined) was 164 to 165 °C.
The value for `C=CCN(C(C)C)C(C)CC1=C(c2ccc(OC)cc2)CCCNC1=O` (centres undefined) was 95 to 97 °C.
In turn, `O=C(O)c1ccc(Cn2ncc3ccccc32)cc1` gave a melting point of 178 to 179 °C.
The value for `N#Cc1cccc(Oc2ccnc(Cl)c2)n1` was 114 °C.
The value for `Cn1c(=O)c(-c2c(Cl)cccc2Cl)cc2cnc(Nc3cccnc3)nc21` was 247 to 248 °C.
The value for `CC1CCN(c2ccc(C(=O)Nc3ccc4nc(CN5CCCC5)ccc4c3)cc2)CC1` was 200 to 202 °C; that for `CCOC(=O)c1ncn2c1[C@@H]1CCCN1C(=O)c1cc([N+](=O)[O-])ccc1-2` was 191 to 193 °C.
As to `NS(=O)(=O)c1cc2c(s1)CCC(=O)C2`, the melting point was in the range of 148 to 150 °C.
The value for `Cc1ccc2[nH]c(-c3ccccc3)c(CCN3CCCCC3)c2c1` was 163 to 164 °C.
The value for `COc1cc(Nc2c(C#N)cnc3cc(C#CCN4CCN(C)CC4)sc23)c(Cl)cc1Cl` was 172 to 173 °C; that for `N#Cc1cccc(-c2ccc(O)cc2)c1` was 135 to 141 °C.
The value for `Cc1cc([N+](=O)[O-])c(Cl)cc1Cl` was 40 to 44 °C; that for `CCCn1nnn(-c2cc(OC(C)C)c(CBr)cc2Cl)c1=O` was 68 to 70 °C.
`NS(=O)(=O)c1ccc(-c2cnn(CC(F)(F)F)c(=O)c2-c2ccc(Cl)c(F)c2)cc1` gave a melting point of 180 to 183 °C.
The value for `CCn1cc(Br)ccc1=NC=C(S(=O)(=O)c1ccccc1)S(=O)(=O)c1ccccc1` was 233 to 235 °C.
The value for `CN1C(=O)C(C)(C)N=C(c2ccccc2F)c2cc([N+](=O)[O-])cc(Br)c21` was 228 °C; that for `CN(C)C(=O)c1ccc(CNC(=O)C2Cc3ccccc3N2S(=O)(=O)c2ccc(-c3ccccc3C(F)(F)F)cc2)cc1` (centres undefined) was 105 to 106 °C; that for `COc1cccc(OC)c1C(=O)NCC(=O)N1c2ccccc2N(Cc2ccccc2)C(=O)[C@H]2CCC[C@H]21` (relative stereo) was 182 to 184 °C.
The value for `OC(Cc1ccc(Cl)cc1Cl)(Cn1ccnc1)c1ccc(F)cc1` (centres undefined) was 178 to 179 °C; that for `O=[N+]([O-])c1ccc(Br)cc1CS(=O)(=O)c1ccccc1` was 143 to 144 °C.
In turn, `CC(C)(C)OC(=O)NCCCC(=O)NCCC(=O)OCc1ccccc1` displayed a melting point of 54 to 55 °C.
The value for `Nc1nc(=O)n(C2CC(O)C(CNC(=O)Cc3ccccc3Br)O2)cc1Br` (centres undefined) was 164 to 167 °C; that for `CN(C)C1CCCN(C(=O)c2ccc(N)cc2)c2ccccc21` (centres undefined) was 120 to 122 °C; that for `Nc1ccc(Sc2c(NCc3ccccc3)cc(C(=O)O)cc2S(N)(=O)=O)cc1` was 254 to 256 °C.
